Source: US10500158B2, “Cationic lipid” (Kyowa Hakko Kirin Co., Ltd., priority 2014, dated 2019)

Experiments:
[1] = Average particle size of the preparations, measured with a particle size measurement apparatus; assay type: physicochemical; conditions: preparations of Examples 21 and 22 (composition containing the compound and f7 siRNA-1)
From the text: Each sample was weighed to be compound 1/PEG-DMPE Na (manufactured by NOF Corp.)=57.3/5.52 mmol/L, and suspended in an aqueous solution containing hydrochloric acid and ethanol. A homogenous suspension was obtained by repeating stirring with a vortex stirring mixer and heating. This suspension was passed through a 0.05-μm polycarbonate membrane filter at room temperature to obtain a dispersion of compound 1/PEG-DMPE Na particles (liposomes). The average particle size of the obtained liposomes was measured with a particle size measurement apparatus to confirm that the average particle size fell within the range of 30 nm to 100 nm. The obtained liposome dispersion and the f7 siRNA-1 solution were mixed at a ratio of liposome dispersion:f7 siRNA-1 solution=3:1. A 3-fold amount of distilled water was further added thereto and mixed to prepare a compound 1/PEG-DMPE Na/f7 siRNA-1 complex dispersion.
The average particle sizes of the preparations (compositions) obtained in Examples 21 and 22 were measured using a particle size measurement apparatus.
The average particle sizes of the preparations (compositions) obtained in Example 23 and Comparative Example 1 were measured using a particle size measurement apparatus.

factor VII gene = experiment: Test Example 1: in vivo drug efficacy evaluation, factor VII protein concentration in plasma after i.v. administration of f7 siRNA-1 preparations; design: species or system Mice (Balb/c); conditions: mice, intravenous, 0.03 and/or 0.3 mg/kg siRNA (f7 siRNA-1), 48 hours after administration; FIGS. 1 and 2
Experimental: The preparations (compositions containing compounds 1, 2, and 4 to 7, respectively, and f7 siRNA-1) obtained in Examples 21 and 22 were each subjected to an in vivo drug efficacy evaluation test by a method given below. Each preparation was used after being diluted with physiological saline according to the test.
Mice (Balb/c, obtained from CLEA Japan, Inc.) were acclimatized and raised. Then, each preparation was intravenously administered at 0.03 and/or 0.3 mg/kg in terms of the siRNA concentration to the mice. 48 hours after the administration, blood was collected, and the collected blood was centrifuged at 8000 rpm at 4° C. for 8 minutes using a high-speed refrigerated microcentrifuge (TOMY MX305; manufactured by Tomy Seiko Co., Ltd.). Absorbance in standard solutions and the plasma samples was measured in ARVO (405 nm) using BIOPHEN VII kit (manufactured by ANIARA, cat#: A221304) according to the method described in the instruction manual of the product. A calibration curve was prepared from the obtained absorbance, and the factor VII protein concentration in plasma was calculated. n=3 for each group.

Particle size of obtained preparation (nm) [1] [nm] | SMILES | expression of the factor VII gene (factor VII protein concentration in plasma) (factor VII gene)
127 | CCCCC/C=C\C/C=C\CCCCCCCCC1(CCCCCCCC/C=C\C/C=C\CCCCC)CN(C(=O)OCCCN(C)C)C1 [Compound 4, 3-(Dimethylamino)propyl 3,3-bis[(9Z,12Z)-octadeca-9,12-dien-1-yl]azetidine-1-carboxylate] | 
128 | CCCCC/C=C\C/C=C\CCCCCCCCCCC1(CCCCCCCCCC/C=C\C/C=C\CCCCC)CN(C)C1 [Compound 7, 3,3-Bis[(11Z,14Z)-icosa-11,14-dien-1-yl]-1-methylazetidine] | 
115 | CCCCCCCC/C=C\CCCCCCCCC1(CCCCCCCC/C=C\CCCCCCCC)CN(C)C1 [Compound 5, 1-Methyl-3,3-bis[(Z)-octadec-9-en-1-yl]azetidine] | 
116 | CCCCC/C=C\C/C=C\CCCCCCCCC1(CCCCCCCC/C=C\C/C=C\CCCCC)CN(CCC)C1 [Compound 2, 3,3-Bis[(9Z,12Z)-octadeca-9,12-dien-1-yl]-1-propylazetidine] | strongly suppressed
123 | CCCCCC/C=C\CCCCCCCCC1(CCCCCCCC/C=C\CCCCCC)CN(C)C1 [Compound 6, 3,3-Bis[(Z)-hexadec-9-en-1-yl]-1-methylazetidine] | 
113 | CCCCC/C=C\C/C=C\CCCCCCCCC1(CCCCCCCC/C=C\C/C=C\CCCCC)CN(C)C1 [Compound 1, 1-Methyl-3,3-bis[(9Z,12Z)-octadeca-9,12-dien-1-yl]azetidine] | strongly suppressed
